Experimental data reported in the NIST ThermoML archive (doi:10.1016/j.jct.2014.06.011).
± gives the expanded uncertainty stated by the source.

How the values were obtained:
[1] = Crystal; DTA
[2] = Molar enthalpy of transition or fusion; conditions: Crystal; DSC

Row | SMILES | Normal melting temperature [1] [°C] | Molar enthalpy of transition or fusion [2] [kcal/mol]
1 | CCCCCCCCCCO [decan-1-ol] | 7.2 ± 0.7 | 6.88 ± 0.741
2 | CCCCCCCCCC(=O)O [decanoic acid] | 32.2 ± 0.7 | 6.69 ± 0.741
3 | CCCCCCCCO [octan-1-ol] | -14.4 ± 0.7 | 5.66 ± 0.717
4 | CCCCCCCC(=O)O [octanoic acid] | 16.6 ± 0.7 | 5.11 ± 0.717
